Results reported in patent publication US7968098B2, “HLA-A24-binding KIF-derived peptide” (Kurume University, priority 2006, dated 2011).
Where two headings read alike, the source gives them in different places.

Key:
[1] = test system: anti-peptide immunoglobulin G (IgG) in plasma; assay: Anti-peptide IgG in plasma measured by the Luminex system; format: binding, human; settings: for Total (IgG-positive cases/total cases): positive = >1.25 times no peptide control; for Positive cases/total cases, Patients: Table 3, IgGs reactive to peptide in plasma of glioma patients; for Positive cases/total cases, Healthy donors: Table 3, IgGs reactive to peptide in plasma of healthy donors; for Positive cases/total cases, Total: Table 3, patients plus healthy donors
Experimental: The levels of anti-peptide immunoglobulin G (IgG) were measured by the Luminex™ system as previously reported (Komatsu N et al, Scand J Clin Invest 2004; 64: 1-11). In brief, plasma was incubated with 25 μl of peptide-coupled color-coded beads (Luminex Corp., Austin, Tex., USA) for 2 h at room temperature on a plate shaker. After incubation, the mixture was washed with a vacuum manifold apparatus and incubated with 100 μl of biotinylated goat anti-human IgG (BA-3080, Vector Laboratories, Burlingame, Calif., USA) for 1 h at room temperature. The plate was then washed, and 100 μl of streptavidin-PE (S-866, Molecular Probes, Eugene, Oreg., USA) was added to each well and was incubated for 30 min at room temperature on a plate shaker. The bound beads were washed three times followed by the addition of 100 μl of Tween-PBS to each well. Fifty μl of each sample was then examined using the Luminex™ system.
Next, the abilities of the KIF-derived peptides to be recognized by IgGs of glioma patients were examined, because IgGs reactive to CTL-directed peptides are detectable in the plasma of patients with different types of cancer (Nakatsura T et al, Eur J Immunol 32: 826-836, 2002), along with that levels of IgG well correlated with clinical responses of patients who received peptide vaccination as reported previously (Mine T et al, Clin Cancer Res 10: 929-937, 2004; Yajima N et al, Clin Cancer Res 11: 5900-5911, 2005). IgGs reactive to a corresponding peptide were judged to be significant when the immunofluorescence intensity in 1:100-diluted plasma exceeded 1.25 times that of the control samples with no peptides. […] Based on these findings, these 8 KIF peptides (3 for KIF1C, 3 for KIF3C, and 2 for KIF21B) were the focus of the following experiments.

[2] = test system: PBMCs of HLA-A24+ glioma patients; format: cell-based, human; settings: for IFN-γ: vs HIV peptide
[3] = Healthy donor 1, 1:100-diluted plasma
[4] = Healthy donor 2, 1:100-diluted plasma
[5] = Healthy donor 3, 1:100-diluted plasma
[6] = Healthy donor 4, 1:100-diluted plasma
[7] = Healthy donor 5, 1:100-diluted plasma
[8] = Healthy donor 9, 1:100-diluted plasma
[9] = glioma Patient 1, 1:100-diluted plasma
[10] = glioma Patient 2, 1:100-diluted plasma
[11] = glioma Patient 3, 1:100-diluted plasma
[12] = glioma Patient 4, 1:100-diluted plasma
[13] = glioma Patient 5, 1:100-diluted plasma
[14] = glioma Patient 7, 1:100-diluted plasma
[15] = glioma Patient 8, 1:100-diluted plasma
[16] = glioma Patient 9, 1:100-diluted plasma

| Sequence | Immunofluoresence intensity [1, 4] | Immunofluoresence intensity [1, 6] | Immunofluoresence intensity [1, 7] | Total (IgG-positive cases/total cases) ([1]; Table 2, glioma patients) | Total (IgG-positive cases/total cases) ([1]; Table 2, healthy donors) | Positive cases/total cases, Patients [1] | Positive cases/total cases, Healthy donors [1] | Positive cases/total cases, Total [1] | Immunofluoresence intensity [1, 9] | Immunofluoresence intensity [1, 12] | Immunofluoresence intensity [1, 15] | Immunofluoresence intensity [1, 16] | also measured |
| --- | --- | --- | --- | --- | --- | --- | --- | --- | --- | --- | --- | --- | --- |
| NYEETLSTL (KIF1C 331-339 peptide) | 13.5 | 16.5 | 35.0 | 0/10 | 0/10 | 0/10 | 0/10 | 0/20 | 33.5 | 10.5 | 8.5 | 5.5 | Immunofluoresence intensity [1, 3]: 70.0; Immunofluoresence intensity [1, 5]: 29.0; Immunofluoresence intensity ([1]; Healthy donor 6, 1:100-diluted plasma): 40.0; Immunofluoresence intensity ([1]; Healthy donor 7, 1:100-diluted plasma): 233.0; Immunofluoresence intensity ([1]; Healthy donor 8, 1:100-diluted plasma): 4133.0; Immunofluoresence intensity [1, 8]: 22.5; Immunofluoresence intensity ([1]; Healthy donor 10, 1:100-diluted plasma): 62.5; Immunofluoresence intensity [1, 10]: 39.5; Immunofluoresence intensity [1, 11]: 22.0; Immunofluoresence intensity [1, 13]: 53.5; Immunofluoresence intensity ([1]; glioma Patient 6, 1:100-diluted plasma): 86.5; Immunofluoresence intensity [1, 14]: 35.5; Immunofluoresence intensity ([1]; glioma Patient 10, 1:100-diluted plasma): 485.4 |
| NYVPGLTPCL (KIF21B 731-740 peptide) | – | – | – | – | – | 1/10 | 1/10 | 2/20 | – | – | – | – | – |
| QYLVRASYL (KIF3C 137-145 peptide) | – | – | – | – | – | 2/10 | 1/10 | 3/20 | – | – | – | – | – |
| RFVPPHDCKL (KIF1C 968-977 peptide) | 23.5 | 33.0 | 58.5 | 4/10 | 5/10 | 4/10 | 5/10 | 9/20 | 77.0 | 27.0 | 12.5 | 19.5 | Immunofluoresence intensity [1, 3]: 117.0; Immunofluoresence intensity [1, 8]: 32.3; Immunofluoresence intensity [1, 13]: 97.0; Immunofluoresence intensity [1, 14]: 74.8 |
| RFYIQMCTEL (Flu virus-derived peptide) [reference compound] | – | – | – | – | – | – | – | – | – | – | – | – | Total (patients with induction of peptide-reactive CTLs) ([2]; HLA-A24+ glioma patients, positive = P<0.05 and >100 pg/ml IFN-γ over HIV peptide): 3/10; IFN-γ ([2]; PBMCs of HLA-A24+ glioma Patient 1, 10 μg/ml peptide): 29 pg/mL; IFN-γ ([2]; PBMCs of HLA-A24+ glioma Patient 2, 10 μg/ml peptide): 0 pg/mL; IFN-γ ([2]; PBMCs of HLA-A24+ glioma Patient 4, 10 μg/ml peptide): 0 pg/mL; IFN-γ ([2]; PBMCs of HLA-A24+ glioma Patient 7, 10 μg/ml peptide): 95 pg/mL; IFN-γ ([2]; PBMCs of HLA-A24+ glioma Patient 8, 10 μg/ml peptide): 0 pg/mL; IFN-γ ([2]; PBMCs of HLA-A24+ glioma Patient 9, 10 μg/ml peptide): 0 pg/mL; IFN-γ ([2]; PBMCs of HLA-A24+ glioma Patient 10, 10 μg/ml peptide): 0 pg/mL |
| RYRAENIMFL (KIF3C 702-711 peptide) | – | – | – | – | – | 2/10 | 5/10 | 7/20 | – | – | – | – | – |
| SYDESLSTL (KIF3C 347-355 peptide) | – | – | – | – | – | 0/10 | 0/10 | 0/20 | – | – | – | – | – |
| TYGPVFMCL [EBV, reference compound] | – | – | – | – | – | – | – | – | – | – | – | – | Total (patients with induction of peptide-reactive CTLs) [2]: 1/10 |
| VYIKDLSSF (KIF3C 174-182 peptide) | – | – | – | – | – | 1/10 | 2/10 | 3/20 | – | – | – | – | – |
| VYQIPQRRRL (KIF1C 725-734 peptide) | 19.5 | 30.5 | 52.5 | 4/10 | 5/10 | 3/10 | 5/10 | 8/20 | 65.5 | 19.5 | 10.0 | 9.3 | Immunofluoresence intensity [1, 3]: 99.5; Immunofluoresence intensity [1, 5]: 66.8; Immunofluoresence intensity [1, 10]: 85.3; Immunofluoresence intensity [1, 11]: 61.3; Immunofluoresence intensity [1, 13]: 98.5 |
| VYRDIGEEML (KIF1C 73-82 peptide) | 19.5 | 29.5 | 50.0 | 3/10 | 6/10 | 3/10 | 6/10 | 9/20 | 57.8 | 17.5 | 11.5 | 11.0 | Immunofluoresence intensity [1, 5]: 64.5; Immunofluoresence intensity [1, 10]: 80.5; Immunofluoresence intensity [1, 11]: 46.8; Immunofluoresence intensity [1, 14]: 68.5 |
